Assay results published in PMC11108815 (Heliyon, 2024).

Tests used:
[1] = Pharmacokinetics in rat plasma; format: in vivo, Wistar rats; conditions: for AUC(0-t) / AUC(0-inf) / CL/F / Cmax / MRT last / MRT inf / half-life / Tmax: Wistar, rat, plasma, po, 100 mg/kg; for AUC(0-t): AUC0-t; for AUC(0-inf): AUC0-∞; for CL/F: CLz/F; for MRT last: MRT0-t; for MRT inf: MRT0-∞; for shape of the drug-time curve: both the control and model groups treated with oral FS or FT
[2] = Stability test of QC samples; format: physicochemical, rat
[3] = FS-C: normal (blank) rats, oral FS 100 mg kg^−1, n = 6
[4] = FT-C: normal (blank) rats, oral FT 100 mg kg^−1, n = 6
[5] = T1/2, FS-C: normal (blank) rats, oral FS 100 mg kg^−1, n = 6
[6] = T1/2, FT-C: normal (blank) rats, oral FT 100 mg kg^−1, n = 6
[7] = control group, after oral administration of FS or FT
[8] = Store at 4 °C for 24 h, high concentration QC sample in rat plasma
[9] = Store at 4 °C for 24 h, low concentration QC sample in rat plasma
[10] = Store at 4 °C for 24 h, medium concentration QC sample in rat plasma
[11] = Store at room temperature for 12 h, high concentration QC sample in rat plasma
[12] = Store at room temperature for 12 h, low concentration QC sample in rat plasma
[13] = Store at room temperature for 12 h, medium concentration QC sample in rat plasma
[14] = Store at −20 °C for 20 days, high concentration QC sample in rat plasma
[15] = Store at −20 °C for 20 days, low concentration QC sample in rat plasma
[16] = Store at −20 °C for 20 days, medium concentration QC sample in rat plasma
[17] = Three freeze-thaw cycles, high concentration QC sample in rat plasma
[18] = Three freeze-thaw cycles, low concentration QC sample in rat plasma
[19] = Three freeze-thaw cycles, medium concentration QC sample in rat plasma

| AUC(0-t) [1, 3] [ng·h/mL] | AUC(0-t) [1, 4] [ng·h/mL] | AUC(0-inf) [1, 3] [ng·h/mL] | AUC(0-inf) [1, 4] [ng·h/mL] | CL/F [1, 3] [mL/min/kg] | CL/F [1, 4] [mL/min/kg] | Cmax [1, 3] [ng/mL] | Cmax [1, 4] [ng/mL] | MRT last [1, 3] [h] | MRT last [1, 4] [h] | MRT inf [1, 3] [h] | MRT inf [1, 4] [h] | half-life [1, 5] [min] | half-life [1, 6] [min] | Tmax [1, 3] [min] | Tmax [1, 4] [min] | Tmax [1, 7] [min] | shape of the drug-time curve [1] | Stability, Accuracy (RE, %) [2, 8] [%] | Stability, Accuracy (RE, %) [2, 9] [%] | Structure (SMILES) | other results |
| --- | --- | --- | --- | --- | --- | --- | --- | --- | --- | --- | --- | --- | --- | --- | --- | --- | --- | --- | --- | --- | --- |
| 107 ± 46.1 | 122 ± 30.9 | 168 ± 139 | 162 ± 87.3 | 74.8 | 37 | 13.2 ± 8.35 | 8.58 ± 1.35 | 7.12 ± 2.26 | 8.8 ± 1.62 | 17 ± 17.6 | 15 ± 11.6 | 595 ± 819 | 443 ± 569 | 37.8 ± 25.2 | 33.6 ± 21.6 | > 28.2 | bimodal phenomenon | −0.93 | 1.81 | O=C(/C=C/c1ccc(O)c(O)c1/C=C/c1ccc(O)c(O)c1)O[C@H](Cc1ccc(O)c(O)c1)C(=O)O [Salvianolic acid A] | Stability, Accuracy (RE, %) [2, 10]: 11.49%; Stability, Accuracy (RE, %) [2, 11]: 3.31%; Stability, Accuracy (RE, %) [2, 12]: −1.96%; Stability, Accuracy (RE, %) [2, 13]: −3.89%; Stability, Accuracy (RE, %) [2, 14]: 2.45%; Stability, Accuracy (RE, %) [2, 15]: 7.09%; Stability, Accuracy (RE, %) [2, 16]: −9.12%; Stability, Accuracy (RE, %) [2, 17]: −10.32%; Stability, Accuracy (RE, %) [2, 18]: 1.08%; Stability, Accuracy (RE, %) [2, 19]: 11.33% |
| 128 ± 40.5 | 119 ± 48.8 | 164 ± 85 | 119 ± 48.9 | 150 | 289 | 11.4 ± 1.33 | 13.7 ± 2.76 | 6.61 ± 1.61 | 8.67 ± 3.71 | 11.1 ± 10.8 | 8.67 ± 3.71 | 304 ± 534 | 61.8 ± 27 | 18.6 ± 9.6 | 13.2 ± 7.8 | < 23.4 | bimodal phenomenon | 7.65 | 6.82 | O=C(/C=C/c1ccc(O)c2c1[C@H](C(=O)O)[C@@H](c1ccc(O)c(O)c1)O2)O[C@H](Cc1ccc(O)c(O)c1)C(=O)O [Lithospermic acid] | AUC0-t in model group compared with control group ([1]; after modeling, p < 0.01, 0.05): significantly higher; Cmax after modeling compared with control group ([1]; oral administration of FS): increased; Stability, Accuracy (RE, %) [2, 10]: 6.58%; Stability, Accuracy (RE, %) [2, 11]: 11.92%; Stability, Accuracy (RE, %) [2, 12]: −5.80%; Stability, Accuracy (RE, %) [2, 13]: 0.69%; Stability, Accuracy (RE, %) [2, 14]: −0.73%; Stability, Accuracy (RE, %) [2, 15]: −8.45%; Stability, Accuracy (RE, %) [2, 16]: 0.15%; Stability, Accuracy (RE, %) [2, 17]: −10.67%; Stability, Accuracy (RE, %) [2, 18]: 6.56%; Stability, Accuracy (RE, %) [2, 19]: 9.01% |
